Source: article PMC7403315, “Cyclic peptide FXII inhibitor provides safe anticoagulation in a thrombosis model and in artificial lungs” (Nature Communications, 2020)
“And” between values parts separate entries of the source, which are not always exact repeats. Equal values may be shown once. “Also recorded” adds a separate entry of the source. Residues, ends and D or L forms follow the SMILES beside them.

Columns and labels:
human β-FXIIa = target: T1, human β-FXIIa (Homo sapiens, UniProt P00748); experiment: FXIIa protease inhibition assay with fluorogenic substrate Boc-Gln-Gly-Arg-AMC; type: biochemical
T1 construct: human β-FXIIa (Molecular Innovations cat #); purchased Molecular Innovations HFXIIAB; host or cells: human blood
T1 sequence (P00748 373-615 limits assumed, other chains not shown): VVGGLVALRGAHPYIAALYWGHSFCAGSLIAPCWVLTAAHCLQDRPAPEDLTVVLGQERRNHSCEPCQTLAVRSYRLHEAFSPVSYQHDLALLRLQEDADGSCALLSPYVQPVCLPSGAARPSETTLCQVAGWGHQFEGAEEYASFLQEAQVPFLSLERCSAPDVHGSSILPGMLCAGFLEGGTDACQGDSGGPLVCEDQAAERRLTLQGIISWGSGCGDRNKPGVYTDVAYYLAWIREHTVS
Method: (§1) In order to test the inhibitory activity of peptides without prior purification, we developed the following method. […] After solid-phase peptide synthesis, cleavage, and ether precipitation, the peptides were chemically cyclized and their Ki values were determined in a FXIIa activity assay using a fluorogenic substrate.
(§2) Protease inhibition assays
(§3) The inhibitory activity of peptides was determined by measuring the residual protease activity with a fluorogenic substrate. The assay was performed in buffer containing 10 mM Tris-Cl, pH […]
(§4) 1% (v/v) DMSO in a volume of 150 µl. FXIIa activity was measured with the fluorogenic substrate Boc-Gln-Gly-Arg-AMC (Bachem) at a final concentration of 50 µM. Mouse α-FXIIa (Molecular Innovations cat # MFXIIA) and human β-FXIIa (Molecular Innovations cat # HFXIIAB) were used at final concentrations of 0.4 nM. The reaction was pipetted as follows: 50 µl of bicyclic peptide in assay buffer were added to 50 µl of FXIIa in assay buffer and incubated for 10 minutes at 25°C before 50 µl of 150 µM fluorogenic substrate in assay buffer were added to measure the residual protease activity with an Infinite M200Pro fluorescence plate reader (excitation at 368 nm, emission at 467 nm; Tecan) for a period of 30 minutes with a read every minute at 25°C. The Tecan software i-control (version 1.1) was used for data analysis. Stock solutions of 1 mM bicyclic peptide were prepared by either dissolving the unpurified cyclization reaction with water or by dissolving purified and lyophilized peptide in water. The bicyclic peptides were serially diluted two-fold using assay buffer. Sigmoidal curves were fitted to the data using the following dose response equation (1), wherein x = peptide concentration, y = % protease activity, and p = Hill slope. IC50 values were derived from the fitted curve.
(§5) The inhibition constants (Ki) were calculated according to the equation of Cheng and Prusoff, Ki = IC50/(1+([S]0/Km), wherein IC50 is the functional strength of the inhibitor, [S]0 is the total substrate concentration, and Km is the Michaelis-Menten constant. […]
(§6) the substrate Boc-Gln-Gly-Arg-AMC. […]

Mouse α-FXIIa = target: T2, Mouse α-FXIIa (Mus musculus, UniProt Q80YC5); experiment: as above; type: biochemical; conditions: purified peptide without coumarin label; read-out: Ki mouse FXIIa
T2 construct: Mouse α-FXIIa; purchased Molecular Innovations MFXIIA
T2 sequence (Q80YC5 355-597 limits assumed): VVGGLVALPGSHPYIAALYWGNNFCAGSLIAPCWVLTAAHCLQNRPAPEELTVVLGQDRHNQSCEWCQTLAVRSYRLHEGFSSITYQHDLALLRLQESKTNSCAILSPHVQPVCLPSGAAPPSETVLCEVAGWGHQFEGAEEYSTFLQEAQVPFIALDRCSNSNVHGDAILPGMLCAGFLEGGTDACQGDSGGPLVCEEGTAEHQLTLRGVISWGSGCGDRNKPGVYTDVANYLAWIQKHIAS
T2 sequence (Q80YC5 20-354 limits assumed): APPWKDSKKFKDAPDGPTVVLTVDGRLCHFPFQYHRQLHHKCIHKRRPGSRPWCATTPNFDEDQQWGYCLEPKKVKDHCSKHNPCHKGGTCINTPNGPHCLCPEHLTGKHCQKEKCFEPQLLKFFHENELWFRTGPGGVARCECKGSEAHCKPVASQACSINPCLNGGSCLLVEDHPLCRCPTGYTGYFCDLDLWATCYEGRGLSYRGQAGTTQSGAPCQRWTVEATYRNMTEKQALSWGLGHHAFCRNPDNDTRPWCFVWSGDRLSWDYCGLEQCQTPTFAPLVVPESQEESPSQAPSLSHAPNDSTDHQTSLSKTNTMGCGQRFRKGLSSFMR
Method: as §1, §2, §3, §4, §5, §6

[1] = Plasma stability assay (residual FXIIa inhibitory activity after plasma incubation); type: in vitro ADME, human; conditions: human, plasma
Method: Peptide (2 μl of 2 mM in H2O) was added to 398 μl of citrated human plasma (Innovative Research) to obtain a final peptide concentration of 10 μM. The mixture was incubated in a water bath at 37 °C. At different time points (0, 0.5, 1, 2, 4, 8, 12, 24, 48, and 96 h), samples of 30 μl were removed, diluted to 200 μl with aqueous buffer (10 mM Tris-HCl, pH 7.4, 150 mM NaCl, 10 mM MgCl2, 1 mM CaCl2), and incubated for 20 min at 65 °C to inactivate plasma proteases. The peptide/plasma samples were stored at −20 °C until the residual inhibitory activity of the peptides was measured in a FXIIa inhibition assay. […] IC50 values were derived from the fitted curve using an equation described in the Supplementary Methods. Residual inhibition in % was calculated using the equation IC50,0h/IC50,xh*100, wherein IC50,0h is the functional strength of the inhibitor at time point 0 and IC50,xh the functional strength of the inhibitor after one of the different plasma incubation periods mentioned above.

FXIIa = conditions: cited from earlier work
[2] = system: hemostasis (tail bleeding); experiment: Tail bleeding time and volume (tail transection); conditions: mice, 2 mm tail transection, peptides 25 mg kg^−1 SC, heparin 200 IU kg^−1 IV
Method: Mice (8- to 10-week-old) were anesthetized with pentobarbital (50 mg kg^−1, IP), treated with PBS (IV, retro-orbital), 200 IU kg^−1 heparin (IV, retro-orbital), 25 mg kg^−1 FXII900 (SC) or 25 mg kg^−1 FXII901 (SC), and put on a 37 °C heating pad. After 5 min, the distal tail was transected at 2 mm with a disposable surgical blade, and the diameter measured to confirm that it is > 1 mm. The tail was placed in a 50 ml falcon tube filled with phosphate-buffered saline (warmed to 37 °C) and the bleeding time was recorded. The total blood loss was determined by measuring the absorption at 540 nm.

[3] = system: ferric chloride-induced thrombosis; experiment: FeCl3 injury thrombosis model in mesenteric arterioles in mice; type: in vivo, mouse
Method: A model of thrombosis in mesenteric arterioles using intravital microscopy was performed according to Angelillo-Scherrer A. et al.[46] with minor modifications. C57BL/6J wild-type mice (male, 10–20 weeks old, 25–30 g, Charles River) were injected intravenously with Rhodamine 6G (100 μl, 1 mM, ACROS Organics product 41902) to fluorescently label the platelets and leucocytes. The mice were injected subcutaneously over the shoulders with FXII900 (5 or 25 mg kg^−1, 0.5 mg ml^−1 in PBS, pH = 7.4) or the negative control FXII901 (5 or 25 mg kg^−1, 0.5 mg ml^−1 in PBS, pH = 7.4), or intravenously (retro-orbital) with 200 IU kg^−1 heparin, and subsequently anesthetized with ketamine (80 mg kg^−1) and xylazine (16 mg kg^−1) via intraperitoneal injection. An abdominal midline incision was made to expose the mesenteric arterioles which were imaged by intravital microscopy using a Mikron IVM500 microscope (Mikron Instruments) coupled with a 50 W mercury lamp (HBO 50 microscope illuminator, Zeiss) attached to combined blue (exciter 455DF70, dichroic 515DRLP, and emitter 515ALP) and green (exciter 525DF45, dichroic 560DRLP, and emitter 565ALP) filter blocks. […] The blood flow, clot formation and vessel occlusion were monitored for 20 or 25 min wherein images were recorded every minute using a digital video cassette recorder (DSR-11, Sony) and analyzed using ImageJ software (version 1.52). Mice were euthanized by final bleeding and cervical dislocation. Time to clot formation and full occlusion of the blood vessel were determined as follows. Clot formation was defined as the formation of a clear aggregation with a diameter of around 10 µm or larger. Occlusion was defined as a clot covering the full diameter of the vessel. Mice showing no speckled pattern at the site of FeCl3 application were assumed to be not injured at the blood vessel and were excluded from the analysis.

[4] = system: coagulation in artificial lung; experiment: Extracorporeal circulation (veno-venous ECMO, artificial lung) in rabbits
Method: New Zealand white rabbits of 3.2–4.2 kg (Charles River) were anesthetized via intramuscular injections of ketamine (30 mg kg^−1) and xylazine (5 mg kg^−1). One of the ear veins was catheterized via a 24G winged catheter, and the rabbits were intubated with a 3.0 endotracheal tube. The animals were kept anesthetized throughout the four-hour experiment via inhaled isoflurane (2%) and were ventilated with a peak inspiratory pressure (PIP) of < 20 cmH2O, positive end expiratory pressure of 5 mmHg, tidal volume of 4–6 ml kg^−1, and a respiratory rate of 22–60 breaths per min. Tidal volume and respiratory rate were adjusted to maintain normal arterial blood gases and the listed PIP. Phenylephrine was applied intravenously at a rate of 0.5–5 μg kg^−1 min^−1 to maintain blood pressure. For monitoring blood pressure and collecting blood samples, the rabbits’ right or left carotid arteries were cannulated using a 16-gauge angiocatheter (Becton Dickinson) and were secured with silk ties. The device and circuit were first primed with filtered CO2 and then with saline (NaCl, 0.9% [w/v]) containing solumedrol (30 mg kg^−1). At this point, rabbits of the inhibitor-treated group were injected with 2 mg kg^−1 of FXII900 as a 2 mM solution in PBS (pH 7.4) via the ear vein and the circuit was connected to the rabbits via a venous/venous ECMO configuration using a 14-gauge angiocatheter (Becton Dickinson) and a 6″ pressure tubing that was cut to length from a 24″ pressure tubing (Edwards Lifesciences) in the right and left internal jugular veins, respectively. The circuit was placed in a roller pump (Cobe), and the blood flow was set to 45 ml per min. After connecting the extracorporeal circuit, rabbits of the inhibitor-treated group were infused with 0.075 mg kg^−1 min^−1 FXII900 via the ear vein for the entire duration of the study. Rabbits treated with heparin were initially infused with 60 IU h^−1 (100 IU ml^−1) starting before connection to the circuit. The drip rate was adjusted based on the following nomogram to maintain the ACT in a range between 220 and 300 s. ACT > 320 s: decrease infusion rate by 12 IU h^−1, 320 s > ACT > 300 s: decrease infusion rate by 6 IU h^−1, 300 s > ACT > 220 s: maintain heparin infusion rate, 220 s > ACT > 200 s: increase infusion rate by 6 IU h^−1, 200 s > ACT > 180 s: increase infusion rate by 12 IU h^−1, ACT < 180 s bolus 100 U (1 ml). After four hours, the animals were euthanized by potassium chloride (2 mg kg^−1, IV). At the end of the experiment, 5 ml of heparin was run through the artificial lung while it was still connected to the rabbits.

[5] = repeat study, 20 min, heparin 200 IU kg^−1, n = 10
[6] = ECMO 4 h, FXII900 2 mg kg^−1 bolus + 0.075 mg kg^−1 min^−1, heparin to ACT 220–300 s

Question: Which results are given for `CC(C)C[C@@H]1NC(=O)[C@H](CCC(N)=O)NC(=O)[C@H](CCCNC(=N)N)NC(=O)[C@@H]2CSCCC(=O)N3CN(CN(C3)C(=O)CCSC[C@H](NC(=O)[C@@H](CO)NC(=O)[C@H](N)CCCNC(=N)N)C(=O)N[C@@H](Cc3ccccc3)C(=O)N[C@@H](CCCNC(=N)N)C(=O)N[C@@H](CC(C)C)C(=O)N3CCC[C@H]3C(=O)N2)C(=O)CCSC[C@@H](C(=O)N[C@@H](CCCNC(=N)N)C(N)=O)NC(=O)[C@H](CCCNC(=N)N)NC1=O` [FXII850] (HELM PEPTIDE1{[dR].[dS].C.F.R.L.P.C.R.Q.L.R.C.R.[am]}|CHEM1{[O=C(CC[*:1])N1CN(C(=O)CC[*:2])CN(C(=O)CC[*:3])C1]}$PEPTIDE1,CHEM1,3:R3-1:R1|PEPTIDE1,CHEM1,8:R3-1:R2|PEPTIDE1,CHEM1,13:R3-1:R3$$$V2.0)?
Answer: Residual activity of human FXIIa (human β-FXIIa; inhibitor 0.390625 nM, 0.000390625 µM): 94.4127%; remaining activity at 0.000390625 µM (human β-FXIIa; inhibitor 0.390625 nM, read-out: Residual activity of human FXIIa): 97.1%; Residual activity of human FXIIa (human β-FXIIa; inhibitor 0.78125 nM, 0.00078125 µM): 86.6748%; remaining activity at 0.00078125 µM (human β-FXIIa; inhibitor 0.78125 nM, read-out: Residual activity of human FXIIa): 93.2%; Residual activity of human FXIIa (human β-FXIIa; inhibitor 1.5625 nM, 0.0015625 µM): 72.1433%; remaining activity at 0.0015625 µM (human β-FXIIa; inhibitor 1.5625 nM, read-out: Residual activity of human FXIIa): 82.9%; Residual activity of human FXIIa (human β-FXIIa; inhibitor 3.125 nM, 0.003125 µM): 57.4159%; remaining activity at 0.003125 µM (human β-FXIIa; inhibitor 3.125 nM, read-out: Residual activity of human FXIIa): 73.8%; Residual activity of human FXIIa (human β-FXIIa; inhibitor 6.25 nM, 0.00625 µM): 39.85%; remaining activity at 0.00625 µM (human β-FXIIa; inhibitor 6.25 nM, read-out: Residual activity of human FXIIa): 56.3%; Residual activity of human FXIIa (human β-FXIIa; inhibitor 12.5 nM, 0.0125 µM): 25.3131%; remaining activity at 0.0125 µM (human β-FXIIa; inhibitor 12.5 nM, read-out: Residual activity of human FXIIa): 37.4%; Residual activity of human FXIIa (human β-FXIIa; inhibitor 50 nM, 0.05 µM): 12.7513% and 5.338%; Residual activity of human FXIIa (human β-FXIIa; inhibitor 100 nM, 0.1 µM): 6.402% and 0.6734%; Residual activity of human FXIIa (human β-FXIIa; inhibitor 200 nM, 0.2 µM): 3.022% and 0%; Residual activity of human FXIIa (human β-FXIIa; inhibitor 400 nM, 0.4 µM): 1.539% and 0%; Ki (human β-FXIIa; purified peptide without coumarin label, read-out: Ki human FXIIa): 5 nM; Ki (Mouse α-FXIIa): 35 nM; half-life at 10 μM [1]: 18.5 h

Question: Which IC50 (FXIIa) does the source give for `NC(N)=NCCC[C@H](NC(=O)[C@H](Cc1ccccc1)NC(=O)[C@H]1CCCN1)C(=O)CCl` [PCK, H-D-Pro-Phe-Arg-chloromethylketone] (HELM PEPTIDE1{[dP].F.R.[ClC[*:1]]}$$$$V2.0) here?
Answer: 180 nM

Question: For heparin, which bleeding time ([2]; 30 min monitored) is on record?
Answer: bled essentially continuously throughout the monitored 30 min period; also recorded: constantly bleeding throughout the 30 min period

Question: And the blood loss [2]?
Answer: medium to high blood loss; also recorded: either a small (3 mice) or large loss of blood (3 mice); also recorded: lost a large volume of blood

Question: And the “Clot (time to clot formation), individual mice” value ([3]; 200 U kg-1)?
Answer: 10 min (2×) and 15 min (3×) and 13 min

Question: And the “Occlusion (time to full occlusion), individual mice” value ([3]; 200 U kg-1)?
Answer: 19 min

Question: What about the “mice showing blood clotting” value [3, 5] of the same compound?
Answer: six

Question: What about the “mice showing vessel occlusion” value [3, 5] of the same compound?
Answer: one

Question: What about the aPTT prolongation [4, 6] of the same compound?
Answer: 1.5 fold

Question: What about the “activated clotting time (ACT) prolongation” value [4, 6] of the same compound?
Answer: 2 fold

Question: And the bleeding time prolongation ([4]; ECMO, all time points)?
Answer: 2 fold

Question: And the “volume of the clot in relation to the device volume” value ([4]; ECMO, end of experiment)?
Answer: 5%

Question: And the “bleeding time (ear incision)” value ([4]; ECMO, throughout the experiment)?
Answer: 5 to 10 min
